Test results reported in patent US20140018316A1, “OPHTHALMIC PHARMACEUTICAL COMPOSITION” (Hayashibara Co., Ltd., priority 2005, published 2014).

Tested on: pig lens
Assay: Swelling and cloudiness of extracted pig lenses soaked in test or control solutions (traumatic cataract model)
Design: key to degree of cloudiness in the lens (relative value): relative gray-scale density; uninjured lens in saline at start = 10
Description: Using an injured pig lens employed as a model for traumatic cataract, the influence of cyclic tetrasaccharide on the cloudiness in the lens was experimented as follows: A test solution was previously prepared by dissolving a cyclic tetrasaccharide crystal, penta hydrate, which had been prepared by the method in the later described Reference for Example 2, in physiological saline into a physiological saline containing 100 mM cyclic tetrasaccharide. As a positive control, a physiological saline containing 100 mM α,α-trehalose, a reagent grade specimen, commercialized by Hayashibara Biochemical Laboratories, Inc., Okayama, Japan, was used; andasanegativecontrol, physiological saline was used. Two milliliter aliquots of any one of the above three kinds of aqueous solutions were added to every two wells in respective commercialized 24-well culture plates. In one of the two wells containing the same kind of solution in each plate was placed a pig lens, which had been obtained from a slaughter-house, extracted by incision within three hours after the obtention and without injuring, and washing the extracted lens with physiological saline; while in the other of the two wells was placed a pig lens, which had been prepared by the same procedure as in the above but injured with a 27-gauge injection needle (commercialized by Terumo Co., Tokyo, Japan) to form an injured line, about one millimeter in length. These lens were allowed to stand at ambient temperature and macroscopically and microscopically observed their change in the degree of cloudiness and in the shape of swelling, etc. This experiment was run in a triplicate manner, and the macroscopic and microscopic observations were done just after (0), 1 hour, 2 hours, 6 hours, and 24 hours after the lenses were placed in the wells, and then observed daily over 28 days. A similar experiment was further conducted using a physiological saline containing 75 mM, 50 mM, 20 mM, 10 mM, or 1 mM cyclic tetrasaccharide and a lens that had not been injured with the injection needle. The degree of cloudiness in each lens, observed with “STEREOMICROSCOPE SZX12”, a product name of a stereomicroscope commercialized by Olympus Co., Tokyo, Japan, was expressed by photographing a transmitted light image of each lens with “PENGUIN 150CL”, a digital camera commercialized by Pixela Co., Tokyo, Japan, capturing the transmitted image by a computer using a view finder commercialized by Olympus Co., Tokyo, Japan, and expressing numerically the degree of light and shade of the captured image as a gray-scale using “Scion Image for Windows Beta 4.0.2”, a software commercialized by Scion Co., Maryland, U.S.A., to obtain a mean density for each lens. The time course change in the degree of cloudiness in each lens placed in each solution was expressed with a relative value, regarding the degree of cloudiness, just after the lens free of injury had been placed in physiological saline, as 10. The change of cloudiness and swelling are respectively in Tables 1 and 2. In Table 1, there show only the results from time 0 hour through two days and from days 7, 14 and 28.

[1] = 1 mM in physiological saline, no injury, 28 days
[2] = 10 mM in physiological saline, no injury, 28 days
[3] = 20 mM in physiological saline, no injury, 28 days
[4] = pig lens in physiological saline

Compound: OCC1OC2OCC3O[C@H](O[C@H]4C(O)C(CO)OC(OCC5O[C@H](O[C@@H](C1O)C2O)C(O)C(O)[C@@H]5O)C4O)C(O)C(O)[C@@H]3O (stereo partly drawn) [Test solution, cyclo{→6)-α-D-glucopyranosyl-(1→3)-α-D-glucopyranosyl-(1→6)-α-D-glucopyranosyl-(1→3)-α-D-glucopyranosyl-(1→}]
- degree of cloudiness in the lens (relative value) (1 mM in physiological saline, no injury, 1 hour): 11
- degree of cloudiness in the lens (relative value) (1 mM in physiological saline, no injury, 2 hours): 12
- degree of cloudiness in the lens (relative value) (1 mM in physiological saline, no injury, 6 hours): 11
- degree of cloudiness in the lens (relative value) (1 mM in physiological saline, no injury, 24 hours): 12
- degree of cloudiness in the lens (relative value) (1 mM in physiological saline, no injury, 2 days): 14
- degree of cloudiness in the lens (relative value) (1 mM in physiological saline, no injury, 7 days): 55
- degree of cloudiness in the lens (relative value) (1 mM in physiological saline, no injury, 14 days): 61
- degree of cloudiness in the lens (relative value) [1]: 85
- swelling of the lens [1]: ◯ (swelling was observed)
- degree of cloudiness in the lens (relative value) (1 mM in physiological saline, no injury, time 0): 10
- degree of cloudiness in the lens (relative value) (10 mM in physiological saline, no injury, 1 hour): 12
- degree of cloudiness in the lens (relative value) (10 mM in physiological saline, no injury, 2 hours): 11
- degree of cloudiness in the lens (relative value) (10 mM in physiological saline, no injury, 6 hours): 12
- degree of cloudiness in the lens (relative value) (10 mM in physiological saline, no injury, 24 hours): 11
- degree of cloudiness in the lens (relative value) (10 mM in physiological saline, no injury, 2 days): 13
- degree of cloudiness in the lens (relative value) (10 mM in physiological saline, no injury, 7 days): 49
- degree of cloudiness in the lens (relative value) (10 mM in physiological saline, no injury, 14 days): 59
- degree of cloudiness in the lens (relative value) [2]: 87
- swelling of the lens [2]: ◯ (swelling was observed)
- degree of cloudiness in the lens (relative value) (10 mM in physiological saline, no injury, time 0): 10
- degree of cloudiness in the lens (relative value) (20 mM in physiological saline, no injury, 1 hour): 11
- degree of cloudiness in the lens (relative value) (20 mM in physiological saline, no injury, 2 hours): 12
- degree of cloudiness in the lens (relative value) (20 mM in physiological saline, no injury, 6 hours): 12
- degree of cloudiness in the lens (relative value) (20 mM in physiological saline, no injury, 24 hours): 12
- degree of cloudiness in the lens (relative value) (20 mM in physiological saline, no injury, 2 days): 14
- degree of cloudiness in the lens (relative value) (20 mM in physiological saline, no injury, 7 days): 51
- degree of cloudiness in the lens (relative value) (20 mM in physiological saline, no injury, 14 days): 60
- degree of cloudiness in the lens (relative value) [3]: 71
- swelling of the lens [3]: ◯ (swelling was observed)
- degree of cloudiness in the lens (relative value) (20 mM in physiological saline, no injury, time 0): 10
- cloudiness in the lens (in words) (20 mM, 10 mM or 1 mM, lenses with no injury, from seven days): cloudiness was observed throughout the lenses
- swelling of the lens (in words) (20 mM, 10 mM or 1 mM, lenses with no injury, until 14 days): No swelling of the lenses was observed
- degree of cloudiness in the lens (relative value) (50 mM in physiological saline, no injury, 1 hour): 11
- degree of cloudiness in the lens (relative value) (50 mM in physiological saline, no injury, 2 hours): 12
- degree of cloudiness in the lens (relative value) (50 mM in physiological saline, no injury, 6 hours): 12
- degree of cloudiness in the lens (relative value) (50 mM in physiological saline, no injury, 24 hours): 12
- degree of cloudiness in the lens (relative value) (50 mM in physiological saline, no injury, 2 days): 13
- degree of cloudiness in the lens (relative value) (50 mM in physiological saline, no injury, 7 days): 15
- degree of cloudiness in the lens (relative value) (50 mM in physiological saline, no injury, 14 days): 20
- degree of cloudiness in the lens (relative value) (50 mM in physiological saline, no injury, 28 days): 28
- degree of cloudiness in the lens (relative value) (50 mM in physiological saline, no injury, time 0): 10
- degree of cloudiness in the lens (relative value) (75 mM in physiological saline, no injury, 1 hour): 11
- degree of cloudiness in the lens (relative value) (75 mM in physiological saline, no injury, 2 hours): 12
- degree of cloudiness in the lens (relative value) (75 mM in physiological saline, no injury, 6 hours): 12
- degree of cloudiness in the lens (relative value) (75 mM in physiological saline, no injury, 24 hours): 12
- degree of cloudiness in the lens (relative value) (75 mM in physiological saline, no injury, 2 days): 12
- degree of cloudiness in the lens (relative value) (75 mM in physiological saline, no injury, 7 days): 14
- degree of cloudiness in the lens (relative value) (75 mM in physiological saline, no injury, 14 days): 21
- degree of cloudiness in the lens (relative value) (75 mM in physiological saline, no injury, 28 days): 29
- degree of cloudiness in the lens (relative value) (75 mM in physiological saline, no injury, time 0): 10
- swelling of the lens (in words) (75 mM or 50 mM, lenses with no injury, until 28 days): No swelling was observed
- degree of cloudiness in the lens (relative value) (100 mM in physiological saline, injured lens, 1 hour): 10
- degree of cloudiness in the lens (relative value) (100 mM in physiological saline, injured lens, 2 hours): 10
- degree of cloudiness in the lens (relative value) (100 mM in physiological saline, injured lens, 6 hours): 12
- degree of cloudiness in the lens (relative value) (100 mM in physiological saline, injured lens, 24 hours): 12
- degree of cloudiness in the lens (relative value) (100 mM in physiological saline, injured lens, 2 days): 12
- degree of cloudiness in the lens (relative value) (100 mM in physiological saline, injured lens, time 0): 10
- degree of cloudiness in the lens (relative value) (100 mM in physiological saline, no injury, 1 hour): 13
- degree of cloudiness in the lens (relative value) (100 mM in physiological saline, no injury, 2 hours): 12
- degree of cloudiness in the lens (relative value) (100 mM in physiological saline, no injury, 6 hours): 12
- degree of cloudiness in the lens (relative value) (100 mM in physiological saline, no injury, 24 hours): 12
- degree of cloudiness in the lens (relative value) (100 mM in physiological saline, no injury, 2 days): 11
- degree of cloudiness in the lens (relative value) (100 mM in physiological saline, no injury, 7 days): 12
- degree of cloudiness in the lens (relative value) (100 mM in physiological saline, no injury, 14 days): 15
- degree of cloudiness in the lens (relative value) (100 mM in physiological saline, no injury, 28 days): 15
- degree of cloudiness in the lens (relative value) (100 mM in physiological saline, no injury, time 0): 10
- swelling of the lens (in words) (100 mM, injured lens, 2 days after initiating observation): the swelling of the lens was not observed
- cloudiness in the lens (in words) (100 mM, injured lens, after 2 days): partial cloudiness only at the injured site
- swelling of the lens (in words) (100 mM, lenses with no injury, on 28 days): no swelling
- concentration with a satisfactory swelling-inhibitory-effect on the lens [4]: ≥ 1 mM
- concentration with an action of inhibiting the swelling and cloudiness in the lens and maintaining transparency [4]: ≥ 50 mM
